Measurements from publication PMC7076710, “Synthesis, Identification, and Structure–Activity Relationship Analysis of GATA4 and NKX2-5 Protein–Protein Interaction Modulators” (Journal of Medicinal Chemistry, 2019).
Where two headings read alike, the source gives them in different places.

Assays:
Format in all cases: cell-based
[1] = molecular target: T1, GATA4 transcriptional activity (Mus musculus, UniProt Q08369); assay: GATA4 luciferase reporter assay (tandem GATA-site reporter, COS-1 cells)
T1 construct: expressed in transfected cells; host or cells: COS-1
Description: (§1) To screen compounds for the GATA4–NKX2-5 interaction, we have developed a luciferase reporter assay based on their property to activate gene transcription synergistically through the NKX2-5 binding site on DNA.[28] In this assay, we transfected mammalian COS-1 cells with protein expression vectors for GATA4 and NKX2-5 proteins together with artificial luciferase reporter vector containing three high affinity binding sites for NKX2-5 (NKE). […] All 257 compounds were tested in two concentrations, 3 and 10 μM. Compounds either inhibited, enhanced, or had no effect on the GATA4–NKX2-5 transcriptional synergy. To investigate the selectivity of the active compounds, we tested their effects on NKX2-5 transcriptional activity by using the same luciferase reporter vector as in transcriptional synergy assay with three NKE sites (Figure 3B). Furthermore, we used GATA luciferase reporter assay to examine if compounds have an effect on GATA4 transcriptional activity. In this assay, we cotransfected the cells with a GATA4 protein expression vector and a reporter vector with tandem GATA4 binding sites (Figure 3C). Previously we have reported that compound 1 inhibited the GATA4–NKX2-5 transcriptional synergy at micromolar concentrations (IC50 = 3 μM).[29]
(§2) The plasmids expressing mouse GATA4 protein, pMT2-GATA4, and empty pMT2 were gifts from D. B. Wilson (Department of Pediatrics, St. Louis Children’s Hospital, St. Louis, MO).[44] The plasmids expressing mouse NKX2-5 protein, pMT2-NKX2-5, have been described earlier.[28] The luciferase reporter plasmid used in GATA4–NKX2-5 transcriptional synergy assay and NKX transcriptional assay, pGL3-3xHA, contains three high affinity binding sites for NKX2-5.[28] The luciferase reporter plasmid used in GATA transcriptional assay, NP-112, contains tandem GATA-sites and minimal promoter of rat brain natriuretic peptide (BNP) gene.[45] The pGL3-BNP luciferase reporter containing −534/+4 bp rat BNP proximal promoter described previously was used in hypertrophy assay.[46]
(§3) The primary screening assay of compounds’ effect on GATA4–NKX2-5 transcriptional synergy and COS-1 cell culturing has been described earlier.[33] […] (Kinnunen et al., unpublished observation). Briefly, COS-1 cells were seeded at 14 000 cells/well in Isoplate-96 microplates (PerkinElmer, Turku, Finland) and grown overnight. The cells were transfected with the luciferase reporter plasmid pGL3-3xHA 100 ng/well and equal amounts of expression plasmids pMT2-GATA4 and pMT2-NKX2-5 total 50 ng/well. To verify the synergistic effect, the cells were transfected with pMT2-GATA4 or pMT2-NKX2-5 25 ng/well, and the total DNA concentration was adjusted to 50 ng/well with empty pMT2 plasmid. In NKX2-5 and GATA4 luciferase reporter assays, the cells were transfected with reporter plasmid pGL3-3xHA or NP-112 (100 ng/well) and expression plasmid pMT2-NKX2-5 or pMT2-GATA4 (25 ng/well). The ratio of DNA/transfection reagent (Fugene 6, Promega) was 1:3 in all assays. The transfections were performed in serum and antibiotics free media for 6 h. The cells were treated with compounds or vehicle (0.1% DMSO) for 24 h, and the luminescence was measured using neolite Reporter Gene Assay System (PerkinElmer, Turku, Finland) and Victor2 plate reader (PerkinElmer, Turku, Finland).
(§4) Raw luciferase data were analyzed in Excel, and clear outliers were removed from triplicates by using the Grubb’s test. Data analysis was performed using R.[49] The luciferase data were first normalized on the basis of the combined mean value of controls. For data visualization and creation of figures, the following R packages were used: ggplot2, cowplot, RColorBrewer, and pheatmap. The heatmaps of the toxicity data were produced with GraphPad Prism 7.00 (GraphPad Software, La Jolla, CA). Statistical significance of luciferase reporter assay data was evaluated by randomized block analysis of variance followed by Dunnett’s post hoc test. […]

[2] = molecular target: T2, GATA4–NKX2-5 transcriptional synergy (Mus musculus, UniProt P42582+Q08369); assay: GATA4–NKX2-5 transcriptional synergy luciferase reporter assay (3xNKE reporter, COS-1 cells)
T2 construct: expressed in transfected cells; host or cells: COS-1

[3] = molecular target: T3, NKX2-5 transcriptional activity (Mus musculus, UniProt P42582); assay: NKX2-5 luciferase reporter assay (3xNKE reporter, COS-1 cells); conditions: for activity at 3 µM: read-out: NKX.3µM; for activity at 10 µM: read-out: NKX.10µM
T3 construct: expressed in transfected cells; host or cells: COS-1
Description: as §1, §2, §3, §4

[4] = COS-1, compound 3 µM, luciferase reporter activity, spread in separate STDEV column
[5] = COS-1, compound 10 µM, luciferase reporter activity, spread in separate STDEV column
[6] = COS-1, 3 µM, luciferase reporter activity, % of control
[7] = COS-1, GATA4 luciferase reporter assay, compound at 10 µM
[8] = COS-1, GATA4-NKX2-5 transcriptional synergy luciferase reporter assay, compound at 3 µM
[9] = COS-1, GATA4-NKX2-5 transcriptional synergy luciferase reporter assay, compound at 10 µM
[10] = COS-1, NKX2-5 luciferase reporter assay, compound at 3 µM
[11] = COS-1, NKX2-5 luciferase reporter assay, compound at 10 µM
[12] = 3 µM compound, GATA4 luciferase reporter, COS-1 cells
[13] = 10 µM compound, GATA4 luciferase reporter, COS-1 cells
[14] = 10 µM compound, GATA4–NKX2-5 transcriptional synergy reporter, COS-1 cells
[15] = 3 µM compound, NKX2-5 luciferase reporter, COS-1 cells
[16] = 10 µM compound, NKX2-5 luciferase reporter, COS-1 cells
[17] = COS-1, 10 µM, luciferase reporter activity, % of control

T3 sequence (P42582 whole entry): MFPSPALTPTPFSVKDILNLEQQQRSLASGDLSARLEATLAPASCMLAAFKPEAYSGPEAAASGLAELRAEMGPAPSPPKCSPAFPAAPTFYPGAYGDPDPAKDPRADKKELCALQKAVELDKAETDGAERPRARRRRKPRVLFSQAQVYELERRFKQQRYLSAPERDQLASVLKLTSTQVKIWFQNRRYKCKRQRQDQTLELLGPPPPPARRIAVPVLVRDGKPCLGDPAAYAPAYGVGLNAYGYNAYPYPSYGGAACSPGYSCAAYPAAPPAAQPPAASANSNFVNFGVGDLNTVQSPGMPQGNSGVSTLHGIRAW
T2 sequence (Q08369 whole entry): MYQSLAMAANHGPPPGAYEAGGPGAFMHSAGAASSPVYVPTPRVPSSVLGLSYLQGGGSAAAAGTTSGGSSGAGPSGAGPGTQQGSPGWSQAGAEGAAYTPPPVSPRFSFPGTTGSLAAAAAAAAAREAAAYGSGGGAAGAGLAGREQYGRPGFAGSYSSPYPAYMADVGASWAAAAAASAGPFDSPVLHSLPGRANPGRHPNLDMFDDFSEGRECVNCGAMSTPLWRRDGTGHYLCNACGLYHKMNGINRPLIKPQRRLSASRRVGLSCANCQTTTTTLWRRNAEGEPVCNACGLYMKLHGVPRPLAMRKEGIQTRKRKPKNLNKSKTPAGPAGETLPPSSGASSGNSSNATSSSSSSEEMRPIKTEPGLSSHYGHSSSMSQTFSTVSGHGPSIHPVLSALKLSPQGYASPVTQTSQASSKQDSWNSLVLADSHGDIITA
T2 sequence (P42582 whole entry): as the sequence (P42582 whole entry) above
T1 sequence (Q08369 whole entry): as the sequence (Q08369 whole entry) above

SMILES | activity at 3 µM [1, 4] | activity at 10 µM [1, 5] | activity at 3 µM [2, 4] | activity at 10 µM [2, 5] | activity at 3 µM [3, 4] | activity at 3 µM [1, 6] | activity at 3 µM [2, 6] | activity at 3 µM [3, 6] | further results
CCN(CC)c1ccc(NC(=O)c2c(-c3cc(C)on3)noc2C)cc1 [Compound 39o] | 89.2% | 101% | 97.1% | 102% | 101% |  |  |  | 
CCN(CC)c1ccc(NC(=O)c2c(-c3ccc(C)s3)noc2C)cc1 [Compound 39p] | 85.9% |  |  | 102% | 83.8% |  |  |  | 
CCN(CC)c1ccc(NC(=O)c2c(C)nc3ccccn23)cc1 [Compound 47ab] |  |  |  |  |  | 127% | 83.4% | 106% | 
CCN(CC)c1ccc(NC(=O)c2cc(C)oc2-c2cc(C)on2)cc1 [Compound 47h] | 134% | 143% | 118% | 104% | 114% |  |  |  | activity at 10 µM [3, 5]: 106%
CCN(CC)c1ccc(NC(=O)c2cc(C)sc2-c2cc(C)on2)cc1 [Compound 47l] | 119% |  | 105% |  |  |  |  |  | effect on NKX2-5 transcriptional activity (in words) [3]: did not affect
CC(C)c1ccc(NC(=O)c2noc3c2CCc2sccc2-3)cc1 [Compound 66] |  |  |  |  |  |  |  |  | activity at 10 µM [1, 7]: 124%; activity at 3 µM [2, 8]: 132%; activity at 10 µM [2, 9]: 128%; activity at 3 µM [3, 10]: 122%; activity at 10 µM [3, 11]: 106%
CCN(c1ccc(NC(=O)c2c(C)noc2-c2cc(C)on2)cc1)C(C)C [Compound 74] |  |  |  |  |  |  |  |  | activity at 3 µM [1, 12]: 103%; activity at 10 µM [1, 13]: 125%; activity at 10 µM [2, 14]: 96.6%; activity at 3 µM [3, 15]: 85.2%; activity at 10 µM [3, 16]: 88.8%
CN(C)c1ccc(/N=C/c2c[nH]nc2-c2ccc(F)cc2)cc1 [Compound 75] |  |  |  |  |  | 107% | 110% | 108% | activity at 10 µM [1, 17]: 122%; activity at 10 µM [2, 17]: 100%; activity at 10 µM [3, 17]: 145%
Cc1onc(-c2ccccc2)c1C(=O)Nc1ccc(C(=O)OCCC#N)cc1 [Compound 76] | 97.1% | 73.4% | 98.7% | 104% | 132% |  |  |  | activity at 10 µM [3, 5]: 126%
C#CC[N+](CC)(CC)c1ccc(NC(=O)c2c(-c3ccccc3)noc2C)cc1 [Compound 77] |  |  |  |  |  | 101% | 84% | 97.9% | activity at 10 µM [1, 17]: 95.3%; activity at 10 µM [2, 17]: 101%; activity at 10 µM [3, 17]: 117%
CCN(CC)c1ccc(-n2c(=O)c3c(C)onc3c3ccccc32)cc1 [Compound 78] |  |  |  |  |  |  |  |  | activity at 3 µM [1, 12]: 101%; activity at 10 µM [1, 13]: 113%; effect on GATA4–NKX2-5 transcriptional synergy (in words) [2]: no effect; activity at 3 µM ([2]; 3 µM compound, GATA4–NKX2-5 transcriptional synergy reporter, COS-1 cells): 84.1%; activity at 10 µM [2, 14]: 100%; activity at 3 µM [3, 15]: 105%; activity at 10 µM [3, 16]: 112%
Cc1onc(-c2ccccc2)c1COCc1ccc2ccccc2c1 [SI48] |  |  |  |  |  | 96.5% | 104% | 103% | activity at 10 µM [1, 17]: 110%; activity at 10 µM [2, 17]: 90.6%; activity at 10 µM [3, 17]: 95.1%
COc1ccc(-c2cc(NCc3ccc(N(C)C)cc3)n[nH]2)cc1 [SI92] | 74.4% | 72.4% | 76.3% | 85.4% | 84% |  |  |  | activity at 10 µM [3, 5]: 78.3%
CN(C)c1ccc(CNc2cc(-c3ccccc3)nn2-c2ccccc2)cc1 [SI94] | 96.8% | 85% | 69% | 72.5% | 95.3% |  |  |  | activity at 10 µM [3, 5]: 79%
Cc1onc(-c2ccccc2)c1N=Cc1ccc(N(C)C)cc1 [SI108] |  |  |  |  |  | 109% | 69.3% | 99.3% | activity at 10 µM [1, 17]: 97.6%; activity at 10 µM [2, 17]: 109%; activity at 10 µM [3, 17]: 103%
COc1cc(C(=O)Nc2cc(-c3ccncc3)n[nH]2)ccc1C [SI123] |  |  |  |  |  |  |  |  | activity at 3 µM ([1]; COS-1, GATA4 luciferase reporter assay, compound at 3 µM): 105%; activity at 10 µM [1, 7]: 80.9%; activity at 3 µM [2, 8]: 93.2%; activity at 10 µM [2, 9]: 72.3%; activity at 3 µM [3, 10]: 106%; activity at 10 µM [3, 11]: 90.4%
